Assay results: patent US20150158914A1, “PEPTIDES, CONSTRUCTS AND USES THEREFOR” (priority 2010, published 2015)
Entries after “also recorded” stand apart in the source; their conditions may differ. Ends that are not written are not given here. * marks the point of attachment. FITC = O=C1OC2(c3ccc(O)cc3Oc3cc(O)ccc32)c2ccc(NC(=S)*)cc21

Assays:
[1] = tested on: X-protein; test: Non-reducing SDS-PAGE/Western blot of X-protein tertiary structure in HepG2 transfectants; assay type: cell-based, hepatitis B virus; details: peptide added thrice over 48 h, non-reducing conditions
Protocol: The inventors investigated how the oligomerization domain peptide (aa 16-35) antagonized X-protein-mediated function. The aim was to determine whether the peptide disrupted the tertiary structure of the X-protein. HepG2 cells were transfected with either the pCDNA3.1-HBX, pCDNA3-HBX Myc or pCDNA3-GFP plasmids and were treated thrice over 48 h with the oligomerization domain peptide (aa 16-35). Control transfectants were not treated with peptide. The nuclear subfraction was resolved by SDS-PAGE using non-reducing loading buffer to keep the disulphide bonding of the X-protein intact. The proteins were transferred onto a PVDF membrane, and probed with a mouse antihuman X-protein primary antibody, followed by a secondary goat anti-mouse HRP-conjugated antibody. […] Transfectants not treated with peptide expressed higher order forms of the X-protein, including the dimeric form at ˜34 kDa, and apparently even higher order structures (FIG. 11). In contrast, cells transfected with pCDNA3.1-HBX and pCDNA3-HBX Myc and treated with the oligomerization domain peptide expressed monomeric forms at ˜17 kDa and ˜21 kDa, respectively.

[2] = tested on: adherent monocytes and platelets; test: Peptide uptake by adherent buffy coat cells; assay type: cell-based, human; details: 3 h, cells adhered to 8-chamber slides
Protocol: To determine whether this was a general feature of nonadherent cells, the ability of the peptide to enter non-adherent human peripheral blood mononuclear cells was examined. A buffy coat containing monocytes, lymphocytes, and platelets was isolated from 10 ml of human blood and incubated in 8-chamber slides for 3 h with the cell-permeable peptide aa 16-22 in RPMI medium without FCS.

[3] = tested on: Rin-m5f pancreatic islet tumor cell line; test: Peptide uptake by other cell lines; assay type: cell-based, rat; details: 3 h
Protocol: (§1) The cells were then incubated overnight at 37° and 5% CO2, and then washed thrice with media without FCS. The X-protein peptide in 250 μl of appropriate media without FCS was added to the cells at a final concentration of 10 μM, and the slides incubated for 3 h at 37° C. and 5% CO2. The cells were washed with PBS, fixed with 4% formaldahyde in PBS for 30 min, and washed thrice with PBS. […] The slides were dried overnight in the dark, and examined by microscopy by using a Nikon E600 fluorescent microscope. Photos were taken using Nikon ACT-1 software. For further examination, slides were then examined by confocal microscopy using a Leica TCS-SP2 confocal microscope.
(§2) The X-protein cell-permeable peptide aa 16-22 was tested for its ability to be taken up by other mammalian cell lines including the human C32 melanoma, DU145 prostate carcinoma, TK1 T cell lymphoma, H441 lung carcinoma, Rin-m5f rat pancreatic islet tumor and Cos-1/7 green monkey kidney cell lines. TK1 cells are suspension cells whereas all other cell lines are adherent cells. Cells were incubated with the fluoresceinated X-protein cell-permeable peptide 16-22 for 3 h in medium appropriate for that cell line in the absence of FCS. The HepG2 cell line was used as a positive control. The X-protein peptide was able enter all adherent cell lines regardless of type or source of the cell (FIGS. 22 and 23).

[4] = tested on: nonadherent cell line TK1; test: Peptide uptake by suspension cell line; assay type: cell-based; details: TK1 in suspension, 3 h; listed as X-protein cell-permeable peptide aa 16-22
Protocol: as §1, §2

[5] = tested on: H441 lung carcinoma cell line; test: Peptide uptake by other cell lines; assay type: cell-based, human; details: H441, 3 h
Protocol: as §1, §2

| Substance | overall level of the X-protein [1] | tertiary structure of the X-protein (dimeric and higher order forms) ([1]; listed as oligomerization domain peptide (aa 16-35)) | uptake by adherent monocytes and platelets ([2]; listed as X-protein cell-permeable peptide 16-22) | uptake by adherent monocytes and platelets ([2]; listed as cell-permeable peptide aa 16-22) | uptake of the peptide, cells positive ([3]; Rin-m5f, no FCS) [% cells positive] | entry into cells ([3]; Rinm5f) | entry into cells [4] | entry into cells [5] | uptake of the peptide, cells positive ([5]; no FCS) [% cells positive] |
| --- | --- | --- | --- | --- | --- | --- | --- | --- | --- |
| FITC-Acp-LCLRPVGAESRGRPVSGPFG [Peptide 16-35] | did not decrease the overall level of the X-protein | Disruption of the tertiary structure of the X-protein; also recorded: disrupts the tertiary structure of the X-protein, preventing dimerization and the formation of higher order structures |  |  |  |  |  |  |  |
| FITC-LCLRPVG ({FITC}-LCLRPVG) [Peptide 16-22] |  |  | able to enter adherent monocytes, and potentially adherent platelets | had taken up the peptide | 60 to 70 | taken up less efficiently | completely unable to enter | taken up less efficiently | 60 to 70 |
